Measured values published in patent US6403600B1, “Methoximinophenylacetic acid amides” (Bayer Aktiengesellschaft, priority 1998, dated 2002).

Test: logP determination by HPLC (EEC-Directive 79/831 Annex V. A8)
Assay type: physicochemical
Details: gradient method, acetonitrile/0.1% aqueous phosphoric acid

Row | SMILES | logP | chromatographic logP
1 | CON=C(C(=O)N(C)C#N)c1ccccc1COc1ccccc1C [Example 10] | 3.67 | 
2 | CON=C(C(=O)N(C)SC(F)(F)F)c1ccccc1Oc1ccccc1 [Example 50] | 4.38 | 
3 | CON=C(C(=O)N(C)Sc1ccc(C(=O)OC)cc1)c1ccccc1COc1ccccc1C [Example 13] | 4.89 | 
4 | CCOC(=O)N(C)C(=O)C(=NOC)c1ccccc1COc1ccccc1C [Example 12] | 4.46 | 
5 | CON=C(C(=O)N(C)SC(F)(F)F)c1ccccc1CON=C(C)c1ccc(OC)c(OC)c1 [Example 80] | 4.36 | 
6 | CON=C(C(=O)N(C)Sc1ccc(OC(F)(F)F)c(Cl)c1)c1ccccc1COc1ccccc1C [Example 23] | 5.99 | 
7 | CCOCN(C)C(=O)C(=NOC)c1ccccc1Oc1ccccc1 [Example 42] | 3.36 | 
8 | CON=C(C(=O)N(C)SC(=O)OC)c1ccccc1CON=C(C)c1cccc(C(F)(F)F)c1 [Example 40] | 4.75 | 
9 | CCOC(=O)N(C)C(=O)C(=NOC)c1ccccc1CON=C(C)c1cccc(C(F)(F)F)c1 [Example 38] | 4.91 | 
10 | CON=C(C(=O)N(C)SC(F)(F)F)c1ccccc1COc1cc(F)ccc1F [Example 70] | 4.48 | 
11 | CON=C(C(=O)N(C)SC(F)(Cl)Cl)c1ccccc1Oc1ccc(OC(F)(F)F)cc1Cl [Example 44] | 5.87 | 
12 | CCN(SC(F)(F)F)C(=O)C(=NOC)c1ccccc1COc1ccccc1C [Example 62] | 5.3 | 
13 | CON=C(C(=O)N(C)SC(F)(Cl)Cl)c1ccccc1CON=C(C)c1cccc(C(F)(F)F)c1 [Example 32] | 5.74 | 
14 | CCSN(C)C(=O)C(=NOC)c1ccccc1CON=C(C)c1cccc(C(F)(F)F)c1 [Example 73] | 5.02 | 
15 | CON=C(C(=O)N(C)Sc1ccc(C)cc1)c1ccccc1COc1ccccc1C [Example 24] | 5.45 | 
16 | CCN(SC(F)(Cl)Cl)C(=O)C(=NOC)c1ccccc1COc1ccccc1C [Example 53] | 5.74 | 
17 | CON=C(C(=O)N(C)SC(=O)OC)c1ccccc1CON=C(C)c1cccc(Cl)c1 [Example 81] | 4.71 | 
18 | CON=C(C(=O)N(C)SC)c1ccccc1CON=C(C)c1cccc(C(F)(F)F)c1 [Example 71] | 4.73 | 
19 | CON=C(C(=O)N(C)C(=O)N(C)SC(F)(Cl)Cl)c1ccccc1COc1ccccc1C [Example 16] | 5.08 | 
20 | CON=C(C(=O)N(C)S(C)(=O)=O)c1ccccc1COc1ccccc1C [Example 18] | 3.82 | 

Row | SMILES | logP | chromatographic logP
21 | CCCCOP(=O)(OC)N(C)C(=O)C(=NOC)c1ccccc1COc1ccccc1C (stereo not shown) [Example 15] | 4.53 | 
22 | CNC(=O)N(C)C(=O)C(=NOC)c1ccccc1COc1ccccc1C [Example 31] | 3.29 | 
23 | CON=C(C(=O)N(C)SC(C)(C)C)c1ccccc1COc1ccccc1C [Example 55] | 5.05 | 
24 | CON=C(C(=O)N(C)SC(F)(Cl)Cl)c1ccccc1Oc1ncnc(Oc2ccccc2Br)c1F [Example 2, 2-{2-[6-(2-bromo-phenoxy)-5-fluoro-pyrimidin-4-yloxy]-phenyl}-N-(dichlorofluoro-methyl-sulphanyl)-2-methoxyimino-N-methylacetamide] |  | 5.1
25 | CON=C(C(=O)N(C)C(=O)N(C)SC(F)(F)F)c1ccccc1COc1ccccc1C [Example 59] | 4.75 | 
26 | CON=C(C(=O)N(C)SN(C)C(=O)OC)c1ccccc1COc1ccccc1C [Example 8] | 4.24 | 
27 | CON=C(C(=O)N(C)SC(F)(Cl)Cl)c1ccccc1COc1cc(C)ccc1C [Example 67] | 5.68 | 
28 | CCS(=O)(=O)N(C)C(=O)N(C)C(=O)C(=NOC)c1ccccc1COc1ccccc1C [Example 35] | 4.05 | 
29 | CON=C(C(=O)N(C)SC(F)(Cl)Cl)c1ccccc1Oc1ncnc(Oc2ccccc2Cl)c1F [Example 3] | 5.05 | 
30 | CON=C(C(=O)N(C)C(=O)N(C)SC(F)(F)F)c1ccccc1CON=C(C)c1cccc(C(F)(F)F)c1 [Example 76] | 5.22 | 
31 | CON=C(C(=O)N(C)Sc1ccccc1)c1ccccc1COc1ccccc1C [Example 21] | 5.11 | 
32 | CON=C(C(=O)N(C)SC(=O)OC)c1ccccc1Oc1ccccc1 [Example 43] | 3.59 | 
33 | CON=C(C(=O)N(C)SC(F)(Cl)Cl)c1ccccc1Oc1ncnc(Oc2cccc(Cl)c2Cl)c1F [Example 91] | 5.46 | 
34 | CON=C(C(=O)N(C)SC(F)(Cl)Cl)c1ccccc1CON=C(C)c1ccc(OC)c(OC)c1 [Example 79] | 4.7 | 
35 | CON=C(C(=O)N(C)SC(=O)OC)c1ccccc1COc1ccccc1C [Example 1, 2-methoximino-2-[2-(methylphenoxy)-methylphenyl]-N-methyl-N-methoxycarbonylthio-acetamide] |  | 4.25
36 | CON=C(C(=O)N(C)C(=O)N(C)SC(F)(Cl)Cl)c1ccccc1Oc1ccccc1 [Example 49] | 4.53 | 
37 | CON=C(C(=O)N(C)C(=O)OCC(C)C)c1ccccc1COc1ccccc1C [Example 14] | 5.21 | 
38 | CCSN(C)C(=O)C(=NOC)c1ccccc1COc1ccccc1C [Example 52] | 4.55 | 
39 | CCOC(=O)N(C(=O)OCC)C(=O)C(=NOC)c1ccccc1COc1ccccc1C [Example 29] | 4.42 | 

Now from value to molecule:

Row | logP | chromatographic logP | SMILES
40 | 4.7 |  | CON=C(C(=O)N(C)SC(F)(Cl)Cl)c1ccccc1Oc1ncnc(Oc2ccccc2OC(F)F)c1F [Example 94]
41 | 5.3 |  | CON=C(C(=O)N(C)SC(F)(Cl)Cl)c1ccccc1Oc1ncnc(Oc2ccc(OC(F)(F)F)cc2)c1F [Example 133]
42 | 5.73 |  | CON=C(C(=O)N(C)SC(F)(Cl)Cl)c1ccccc1Oc1ncnc(Oc2ccccc2C(C)(C)C)c1F [Example 111]
43 | 5.11 |  | CON=C(C(=O)N(C)SC(F)(Cl)Cl)c1ccccc1Oc1ncnc(Oc2cccc(C(F)(F)F)c2)c1F [Example 106]
44 | 5.81 |  | CON=Cc1cccc(Oc2ncnc(Oc3ccccc3C(=NOC)C(=O)N(C)SC(F)(Cl)Cl)c2F)c1 [Example 100]
45 | 4.73 |  | CON=C(C(=O)N(C)SC(F)(Cl)Cl)c1ccccc1Oc1ncnc(Oc2ccccc2F)c1F [Example 105]
46 | 4.68 |  | CON=C(C(=O)N(C)SC(F)(Cl)Cl)c1ccccc1Oc1ncnc(Oc2cccc(OC)c2)c1F [Example 130]
47 | 5.45 |  | CON=C(C(=O)N(C)SC(F)(Cl)Cl)c1ccccc1Oc1ncnc(OC)c1F [Example 145]
48 | 5.6 |  | CON=C(C(=O)N(C)SC(F)(Cl)Cl)c1ccccc1Oc1ncnc(Oc2ccc(SC(F)(F)F)cc2)c1F [Example 139]
49 | 5.25 |  | CCc1ccccc1Oc1ncnc(Oc2ccccc2C(=NOC)C(=O)N(C)SC(F)(Cl)Cl)c1F [Example 109]
50 | 5.16 |  | CON=C(C(=O)N(C)SC(F)(Cl)Cl)c1ccccc1Oc1ncnc(Oc2ccc(C(F)(F)F)cc2OC)c1F [Example 112]
51 | 5.19 |  | CON=C(C(=O)N(C)SC(F)(Cl)Cl)c1ccccc1Oc1ncnc(Oc2ccc(Br)cc2)c1F [Example 104]
52 | 5.4 |  | CON=C(C(=O)N(C)SC(F)(Cl)Cl)c1ccccc1Oc1ncnc(Oc2c(C)cccc2C)c1F [Example 97]
53 | 5.14 |  | CON=C(C(=O)N(C)SC(F)(Cl)Cl)c1ccccc1Oc1ncnc(Oc2ccc(F)cc2Cl)c1F [Example 114]
54 | 5.46 |  | CON=C(C(=O)N(C)SC(F)(Cl)Cl)c1ccccc1Oc1ncnc(Oc2cc(Cl)ccc2C)c1F [Example 125]
55 | 4.84 |  | CN(SC(F)(Cl)Cl)C(=O)C(=NOCF)c1ccccc1Oc1ncnc(Oc2ccccc2Cl)c1F [Example 98]
56 | 5.29 |  | CON=C(C(=O)N(C)SC(F)(Cl)Cl)c1ccccc1Oc1cc(Oc2cccc(Cl)c2C)ncn1 [Example 141]
57 | 5.14 |  | CON=C(C(=O)N(C)SC(F)(Cl)Cl)c1ccccc1Oc1ncnc(Oc2cccc(Cl)c2)c1F [Example 117]
58 | 4.57 |  | CON=C(C(=O)N(C)SC(F)(Cl)Cl)c1ccccc1Oc1ncnc(Oc2ccccc2OC)c1F [Example 129]
59 | 5.34 |  | CON=C(C(=O)N(C)SC(F)(Cl)Cl)c1ccccc1Oc1ncnc(Oc2cc(C)ccc2C)c1F [Example 121]
60 | 4.85 |  | CON=C(C(=O)N(C)SC(F)(Cl)Cl)c1ccccc1Oc1ncnc(Oc2ccc(F)cc2F)c1F [Example 116]
61 | 5.39 |  | CON=C(C(=O)N(C)SC(F)(Cl)Cl)c1ccccc1Oc1ncnc(Oc2cccc(Br)c2)c1F [Example 101]
